Source: US20220324865A1 (Bayer Aktiengesellschaft, priority 2018, published 2022)
Counter-ions that a name gives are not always drawn.

biological target: T1, human EP3 receptor (Homo sapiens, UniProt P43115); assay: Cellular in vitro assay for determining EP3 receptor activity (human EP3 cell line, sulprostone-stimulated calcium luminescence); assay type: cell-based; details: CHO cells expressing human EP3 and mitochondrial Clytin; antagonist mode, sulprostone at EC50; read-out: EP3 CHO mtCLY ANTAG IC50
T1 construct: expressed in transfected cells; host or cells: CHO K1 (Chinese Hamster Ovary), stably co-transfected with Galpha16 and mitochondrial clytin
T1 sequence (P43115 1-390): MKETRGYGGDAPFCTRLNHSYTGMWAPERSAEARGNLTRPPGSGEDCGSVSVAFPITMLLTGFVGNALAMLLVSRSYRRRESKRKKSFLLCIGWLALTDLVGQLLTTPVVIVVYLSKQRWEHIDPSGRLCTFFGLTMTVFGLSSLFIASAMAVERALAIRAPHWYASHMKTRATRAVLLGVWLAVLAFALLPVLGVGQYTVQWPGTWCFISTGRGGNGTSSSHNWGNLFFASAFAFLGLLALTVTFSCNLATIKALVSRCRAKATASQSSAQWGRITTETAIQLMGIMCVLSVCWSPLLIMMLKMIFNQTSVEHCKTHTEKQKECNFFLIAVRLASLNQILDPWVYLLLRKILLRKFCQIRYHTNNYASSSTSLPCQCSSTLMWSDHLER
Description: B-1. Cellular In Vitro Assay for Determining EP3 Receptor Activity
The identification of antagonists of the EP3 receptor from humans and rats as well as the quantification of the activity of the compounds of the invention was carried out using recombinant cell lines. These cell lines originally derive from a hamsters ovary epithelial cell (Chinese Hamster Ovary, CHO K1, ATCC: American Type Culture Collection, Manassas, Va. 20108, USA). The test cell lines constitutively express the human or rat EP3 receptors. The naturally Gαi-coupled human and rat EP3 receptors were stably co-transfected with Gα16 into cells that are also stably transfected with a mitochondrial form of the calcium-sensitive photoproteins Clytin (human EP3) or Photina (rat EP3), which, after reconstitution with the cofactor coelenterazine, emit light when there are increases in free calcium concentrations (Nature 1992, 358, 325-327; Gene 1995, 153 (2), 273-274). The resulting EP3 receptor cells react to stimulation of the recombinantly expressed EP3 receptors by the agonist sulprostone with intracellular release of calcium ions, which can be quantified by the resulting photoprotein luminescence. Antagonists inhibit the receptor signaling, leading to reduced calcium release and luminescence. The bioluminescence of the cell lines is detected using a suitable luminometer (Trends Pharmacol. Sci. 1996, 17, 235-237).
Human and Rat EP3 Cell Lines:
On the day before the assay, the cells are plated out in culture medium (OptiMEM, 1% FCS, 2 mM glutamine, 10 mM HEPES, 5 μg/ml coelenterazine) in 384-well microtiter plates and kept in a cell incubator (96% humidity, 5% v/v CO2, 37° C.). On the day of the assay, test compounds in various concentrations are placed for 10 minutes in the wells of the microtiter plate before the agonist sulprostone at EC50 concentration is added. The resulting light signal is measured immediately in a luminometer. All concentrations are measured in quadruples.

Row | IC50 | Compound
1 | 0.5 nM | CCn1nccc1CNC(=O)c1nn2cc(-c3cnc4cccc(C)c4c3)[nH]c(=O)c2c1C(C)C [Example 4-16, N-[(1-Ethyl-1H-pyrazol-5-yl)methyl]-6-(5-methylquinolin-3-yl)-4-oxo-3-(propan-2-yl)-4,5-dihydropyrazolo[1,5-a]pyrazine-2-carboxamide]
2 | 1.2 nM | Cc1ccc(-c2cn3nc(C(=O)N[C@H](C)c4ccc(F)cc4)cc3c(=O)[nH]2)cc1C [6-36]
3 | 6.67 nM | CC[C@@H](C)NC(=O)c1nn2cc(-c3ccc(Cl)c(C)c3)[nH]c(=O)c2c1C(F)(F)F [6-227]
4 | 9.4 nM | Cc1c(C(=O)NC(C)(C)c2cc(Cl)cc(Cl)c2)nn2c(C)c(-c3ccc4ccccc4c3)[nH]c(=O)c12 [Example 3-30, N-[2-(3,5-Dichlorophenyl)propan-2-yl]-3,7-dimethyl-6-(naphthalen-2-yl)-4-oxo-4,5-dihydropyrazolo[1,5-a]pyrazine-2-carboxamide]
5 | 9.4 nM | Cc1ccc(-c2cn3nc(C(=O)N[C@@H](c4ccccc4)C(C)(C)O)cc3c(=O)[nH]2)cc1F [6-640]
6 | 0.99 nM | Cc1ccc(-c2cn3nc(C(=O)NCC(O)C(F)(F)F)c(C(F)(F)F)c3c(=O)[nH]2)cc1Cl (single isomer, unassigned) [6-160]
7 | 5.7 nM | O=C(NC(CCn1cncn1)c1ccccc1)c1cc2c(=O)[nH]c(-c3ccc4ccccc4c3)cn2n1 (stereo not shown) [6-48]
8 | 3.15 nM | Cc1ccc(-c2cn3nc(C(=O)N[C@H](C)C(C)C)c(C(F)(F)F)c3c(=O)[nH]2)cc1C [6-114]
9 | 9.45 nM | Cc1cccc2ncc(-c3cn4nc(C(=O)NC(CN5CCCC5)c5ccccc5)c(C(C)C)c4c(=O)[nH]3)cc12 (stereo not shown) [Example 4-63, 3-Isopropyl-6-(5-methylquinolin-3-yl)-4-oxo-N-[1-phenyl-2-(pyrrolidin-1-yl)ethyl]-4,5-dihydropyrazolo[1,5-a]pyrazine-2-carboxamide]
10 | 1.05 nM | Cc1cccc2ncc(-c3cn4nc(C(=O)NC(C)CC5CC5)c(C(C)C)c4c(=O)[nH]3)cc12 (stereo not shown) [Example 4-18, N-(1-Cyclopropylpropan-2-yl)-3-isopropyl-6-(5-methylquinolin-3-yl)-4-oxo-4,5-dihydropyrazolo[1,5-a]pyrazine-2-carboxamide]
11 | 5.55 nM | O=C(NCC(O)C(F)(F)F)c1nn2cc(-c3ccc4c(c3)OCCO4)[nH]c(=O)c2c1C(F)(F)F (single isomer, unassigned) [6-533]
12 | 2.19 nM | Cc1ccc(-c2cn3nc(C(=O)NC4(c5ccc(F)cc5)CN(C)C4)c(C4CC4)c3c(=O)[nH]2)cc1C [Example 1-36, 3-Cyclopropyl-6-(3,4-dimethylphenyl)-N-[3-(4-fluorophenyl)-1-methylazetidin-3-yl]-4-oxo-4,5-dihydropyrazolo[1,5-a]pyrazine-2-carboxamide]
13 | 2.7 nM | CCC1(NC(=O)c2cc3c(=O)[nH]c(-c4ccc5ccccc5c4)cn3n2)CN(C(=O)OC(C)(C)C)C1 [Example 1-5, tert.-Butyl 3-ethyl-3-({[6-(naphthalen-2-yl)-4-oxo-4,5-dihydropyrazolo[1,5-a]pyrazin-2-yl]carbonyl}-amino)azetidine-1-carboxylate]
14 | 7 nM | Cc1ccc(-c2cn3nc(C(=O)NC(C(C)C)C(O)C(F)(F)F)cc3c(=O)[nH]2)cc1C (stereo not shown) [6-351]
15 | 1.15 nM | CC(NC(=O)c1cc2c(=O)[nH]c(-c3ccc4ccccc4c3)cn2n1)c1ccccc1OC(F)F (stereo not shown) [Example 2-50, N-{1-[2-(Difluormethoxy)phenyl]ethyl}-6-(2-naphthyl)-4-oxo-4,5-dihydropyrazolo[1,5-a]pyrazine-2-carboxamide]
16 | 2.5 nM | CN1CC(NC(=O)c2nn3cc(-c4ccc(Cl)c(Cl)c4)[nH]c(=O)c3c2C2CC2)(c2ccc(F)cc2)C1 [Example 1-170, 3-Cyclopropyl-6-(3,4-dichlorophenyl)-N-[3-(4-fluorophenyl)-1-methylazetidin-3-yl]-4-oxo-4,5-dihydropyrazolo[1,5-a]pyrazine-2-carboxamide]
17 | 4.35 nM | Cc1cc(-c2cn3nc(C(=O)NC4(c5ccc(F)cc5)CN(C)C4)c(C(F)(F)F)c3c(=O)[nH]2)ccc1Cl [6-207]
18 | 2 nM | COc1ccc(C(CCO)NC(=O)c2nn3cc(-c4cnc5cccc(C)c5c4)[nH]c(=O)c3c2C(C)C)cc1 (stereo not shown) [Example 4-83, N-[3-Hydroxy-1-(4-methoxyphenyl)propyl]-3-isopropyl-6-(5-methyl-3-quinolyl)-4-oxo-5H-pyrazolo[1,5-a]pyrazine-2-carboxamide]
19 | 3.05 nM | Cc1cc(-c2cn3nc(C(=O)NC4(c5ccc(F)cc5)CN(C)C4)c(C(F)(F)C(F)(F)F)c3c(=O)[nH]2)ccc1Cl [6-480]

Row | IC50 | Compound
20 | 0.68 nM | O=C(NC(c1ccc(F)cc1)C1(O)CC1)c1nn2cc(-c3ccc(Cl)c(Cl)c3)[nH]c(=O)c2c1C1CC1 (single isomer, unassigned) [6-424]
21 | 1.5 nM | Cc1ccc(-c2cn3nc(C(=O)N[C@H](CCO)c4ccc(F)cc4)c(C#N)c3c(=O)[nH]2)cc1C [Example 1-58, 3-Cyano-6-(3,4-dimethylphenyl)-N-[(1R)-1-(4-fluorophenyl)-3-hydroxpropyl]-4-oxo-4,5-dihydropyrazolo[1,5-a]pyrazine-2-carboxamide]
22 | 0.675 nM | Cc1cccc2ncc(-c3cn4nc(C(=O)N[C@@H](C)c5ccccc5)c(C(C)C)c4c(=O)[nH]3)cc12 [Example 4-59, 6-(5-Methylquinolin-3-yl)-4-oxo-N-[(7S)-1-phenylethyl]-3-(propan-2-yl)-4,5-dihydropyrazolo[1,5-a]pyrazine-2-carboxamide]
23 | 3.13 nM | C[C@@H](NC(=O)c1cc2c(=O)[nH]c(-c3cnc4ccccc4c3)cn2n1)c1ccc(F)cc1 [6-62]
24 | 5.4 nM | Cc1ccc(-c2cn3nc(C(=O)N[C@@H](c4ccc(F)cc4)C(C)(C)O)cc3c(=O)[nH]2)c(F)c1C [6-646]
25 | 7.65 nM | CN1CC(NC(=O)c2cc3c(=O)[nH]c(-c4ccc5ccccc5c4)cn3n2)(c2ccc(F)cc2)C1 [Example 1-49, N-[3-(4-Fluorophenyl)-1-methylazetidin-3-yl]-6-(naphthalen-2-yl)-4-oxo-4,5-dihydropyrazolo-[1,5-a]pyrazine-2-carboxamide formic acid salt]
26 | 1.7 nM | Cc1cc(-c2cn3nc(C(=O)N[C@@H](c4ccc(F)cc4)C(C)(C)O)c(C4CC4(F)F)c3c(=O)[nH]2)ccc1Cl (stereo partly shown) [6-551]
27 | 0.78 nM | Cc1ccc(-c2cn3nc(C(=O)N[C@H](C)C4CC4)c(C(F)(F)F)c3c(=O)[nH]2)cc1C [6-120]
28 | 6.3 nM | CC(C)(O)[C@@H](NC(=O)c1nn2cc(-c3ccc(Cl)c(F)c3)[nH]c(=O)c2c1C(F)F)c1ccc(F)cc1 [6-632]
29 | 4.4 nM | Cc1ccc(-c2cn3nc(C(=O)NC(CO)C(F)(F)F)c(C4CC4)c3c(=O)[nH]2)cc1F (racemic) [6-392]
30 | 9.55 nM | CN(C)C(CNC(=O)c1cc2c(=O)[nH]c(-c3ccc4ccccc4c3)cn2n1)c1cccc(C(F)(F)F)c1 (stereo not shown) [Example 2-15, N-{2-(Dimethylamino)-2-[3-(trifluormethyl)phenyl]ethyl}-6-(2-naphthyl)-4-oxo-4,5-dihydropyrazolo[1,5-a]pyrazine-2-carboxamide]
31 | 4.05 nM | Cc1ccc(-c2cn3nc(C(=O)NC(C)C4CCC4)c(C(F)(F)F)c3c(=O)[nH]2)cc1Cl (racemic) [6-193]
32 | 1.5 nM | Cc1ccc(-c2cn3nc(C(=O)NC(C)(C)C4CC4)c(C4CC4)c3c(=O)[nH]2)cc1Cl [6-280]
33 | 1.05 nM | O=C(NCC(O)C(F)(F)F)c1nn2cc(-c3ccc(Cl)c(Cl)c3)[nH]c(=O)c2c1C1CC1 (racemic) [6-415]
34 | 1.9 nM | Cc1cccc2ncc(-c3cn4nc(C(=O)NCC(C)(C)C)c(C(C)C)c4c(=O)[nH]3)cc12 [Example 4-33, N-(2,2-Dimethylpropyl)-6-(5-methylquinolin-3-yl)-4-oxo-3-(propan-2-yl)-4,5-dihydropyrazolo[1,5-a]pyrazine-2-carboxamide]
35 | 6.03 nM | O=C(NCCC(F)(F)F)c1cc2c(=O)[nH]c(-c3ccc4cccc(F)c4c3)cn2n1 [6-41]
36 | 1.95 nM | Cc1cc(-c2cn3nc(C(=O)N[C@H](C)C(C)C)c(C(F)(F)F)c3c(=O)[nH]2)ccc1Cl [6-217]
37 | 2.7 nM | Cc1c(C(=O)NC(C)c2cccnc2)nn2c(C)c(-c3ccc4ccccc4c3)[nH]c(=O)c12 (stereo not shown) [Example 3-73, 3,7-Dimethyl-6-(2-naphthyl)-4-oxo-N-[1-(3-pyridyl)ethyl]-5H-pyrazolo[1,5-a]pyrazine-2-carboxamide]
